Experimental data as given in US20260092071A1, “COMPOUNDS AND COMPOSITIONS AS SMARCA2/4 DEGRADERS AND USES THEREOF” (REGENTS OF THE UNIVERSITY OF MICHIGAN, priority 2022, published 2026).
Read-outs that look alike come from different tables or passages of the source.

Assays:
SMARCA4 = SMARCA4 (Homo sapiens, UniProt P51532); assay: HiBiT assay for protein degradation, Hela SMARCA4-HiBiT cells (A series); assay type: cell-based; design: fuse HiBiT to the carboxy terminus of SMARCA2 (Promega CS302365) or SMARCA4 (Promega CS3023225); host or cells: HeLa (CRISPR/Cas9 HiBiT knock-in); settings: for DC50: read-out: SMARC A4 Hela HiBit DC50
Summary of the method: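 SMARCA4 degradation was measured in HeLa cells in which HiBiT had been knocked into the SMARCA4 carboxy terminus via CRISPR/Cas9 (Promega CS3023225). Cells were maintained in DMEM with FBS and penicillin-streptomycin. At the end of treatment, SMARCA4 levels were read by lytic HiBiT luminescence (Nano-Glo®, Promega N3050), and data were analyzed with GraphPad Prism.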

SMARCA2 = SMARCA2 (Homo sapiens, UniProt P51531); assay: HiBiT assay for protein degradation, Hela SMARCA2-HiBiT cells (A series); assay type: cell-based; design: Hela cells were genetically modified via CRISPR/Cas9 to fuse HiBiT to the carboxy terminus of SMARCA2; host or cells: HeLa (CRISPR/Cas9 HiBiT knock-in); settings: for Dmax: read-out: SMARC A2 Hela HiBit Dmax (%); for DC50: read-out: SMARC A2 Hela HiBit DC50;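 on SMARC A2 Hela HiBit Dmax (%): 24 h compound treatment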
Summary of the method: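 SMARCA2 degradation was measured in HeLa cells whose endogenous SMARCA2 carries a carboxy-terminal HiBiT tag introduced by CRISPR/Cas9 (Promega CS302365). Cells were maintained in DMEM with FBS and penicillin-streptomycin. SMARCA2 levels were read at the end of the experiment by Nano-Glo® HiBiT lytic luminescence (Promega N3050) and analyzed in GraphPad Prism.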

[1] = HeLa, read-out: SMARC A4 Hela HiBit Dmax(%)
[2] = Hela SMARCA4-HiBiT cells, 24 hours treatment
[3] = Hela SMARCA2-HiBiT cells, 24 hours treatment
[4] = Hela SMARCA4-HiBiT cells, 24 hours treatment, read-out: SMARC A4 Hela HiBit Dmax
[5] = Hela SMARCA4-HiBiT cells, 24 hours treatment, read-out: SMARC A4 Hela HiBit Dmax(%)

Chain of SMARCA4 (P51532 whole entry): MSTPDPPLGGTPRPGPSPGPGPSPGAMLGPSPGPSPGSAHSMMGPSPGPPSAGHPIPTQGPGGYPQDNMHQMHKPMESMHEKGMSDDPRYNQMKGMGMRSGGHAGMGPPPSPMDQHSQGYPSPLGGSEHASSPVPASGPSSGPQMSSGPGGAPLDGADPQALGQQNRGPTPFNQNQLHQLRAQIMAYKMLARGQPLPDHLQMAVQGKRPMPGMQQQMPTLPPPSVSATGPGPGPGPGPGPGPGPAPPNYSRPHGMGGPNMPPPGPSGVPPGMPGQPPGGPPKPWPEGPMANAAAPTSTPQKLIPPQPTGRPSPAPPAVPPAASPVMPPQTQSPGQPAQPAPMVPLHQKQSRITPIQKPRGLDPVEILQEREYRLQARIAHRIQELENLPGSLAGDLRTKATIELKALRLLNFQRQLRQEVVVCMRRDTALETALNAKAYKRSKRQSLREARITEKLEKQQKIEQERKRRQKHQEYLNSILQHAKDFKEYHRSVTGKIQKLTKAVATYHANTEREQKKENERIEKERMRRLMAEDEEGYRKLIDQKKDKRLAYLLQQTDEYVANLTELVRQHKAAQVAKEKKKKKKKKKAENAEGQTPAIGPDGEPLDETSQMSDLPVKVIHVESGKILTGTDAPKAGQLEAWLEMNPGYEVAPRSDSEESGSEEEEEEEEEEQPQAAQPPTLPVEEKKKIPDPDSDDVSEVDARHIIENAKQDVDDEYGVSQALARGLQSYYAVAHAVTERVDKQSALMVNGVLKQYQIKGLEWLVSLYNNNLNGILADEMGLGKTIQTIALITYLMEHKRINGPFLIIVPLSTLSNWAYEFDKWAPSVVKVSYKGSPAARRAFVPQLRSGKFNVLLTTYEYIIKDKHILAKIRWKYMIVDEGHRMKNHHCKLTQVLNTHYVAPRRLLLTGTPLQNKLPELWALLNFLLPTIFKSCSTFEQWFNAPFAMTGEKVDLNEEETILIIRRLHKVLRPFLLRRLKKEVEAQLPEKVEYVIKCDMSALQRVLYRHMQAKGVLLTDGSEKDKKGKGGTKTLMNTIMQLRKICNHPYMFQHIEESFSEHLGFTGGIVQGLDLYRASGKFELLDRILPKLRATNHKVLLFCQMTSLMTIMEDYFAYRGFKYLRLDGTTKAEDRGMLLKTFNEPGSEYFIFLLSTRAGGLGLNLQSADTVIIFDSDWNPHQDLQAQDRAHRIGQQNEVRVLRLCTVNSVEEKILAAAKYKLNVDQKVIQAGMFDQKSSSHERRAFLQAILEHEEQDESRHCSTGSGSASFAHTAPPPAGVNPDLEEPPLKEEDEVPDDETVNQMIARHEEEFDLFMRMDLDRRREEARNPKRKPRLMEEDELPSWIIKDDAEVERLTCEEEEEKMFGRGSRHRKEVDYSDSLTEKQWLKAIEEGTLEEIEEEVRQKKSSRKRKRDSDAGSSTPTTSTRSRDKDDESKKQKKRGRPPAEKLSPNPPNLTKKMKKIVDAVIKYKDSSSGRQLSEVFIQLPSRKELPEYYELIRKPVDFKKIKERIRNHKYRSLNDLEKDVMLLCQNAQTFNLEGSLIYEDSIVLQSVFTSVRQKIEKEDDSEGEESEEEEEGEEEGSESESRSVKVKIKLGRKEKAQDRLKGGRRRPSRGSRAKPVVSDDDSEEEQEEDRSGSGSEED
Chain of SMARCA2 (P51531 whole entry): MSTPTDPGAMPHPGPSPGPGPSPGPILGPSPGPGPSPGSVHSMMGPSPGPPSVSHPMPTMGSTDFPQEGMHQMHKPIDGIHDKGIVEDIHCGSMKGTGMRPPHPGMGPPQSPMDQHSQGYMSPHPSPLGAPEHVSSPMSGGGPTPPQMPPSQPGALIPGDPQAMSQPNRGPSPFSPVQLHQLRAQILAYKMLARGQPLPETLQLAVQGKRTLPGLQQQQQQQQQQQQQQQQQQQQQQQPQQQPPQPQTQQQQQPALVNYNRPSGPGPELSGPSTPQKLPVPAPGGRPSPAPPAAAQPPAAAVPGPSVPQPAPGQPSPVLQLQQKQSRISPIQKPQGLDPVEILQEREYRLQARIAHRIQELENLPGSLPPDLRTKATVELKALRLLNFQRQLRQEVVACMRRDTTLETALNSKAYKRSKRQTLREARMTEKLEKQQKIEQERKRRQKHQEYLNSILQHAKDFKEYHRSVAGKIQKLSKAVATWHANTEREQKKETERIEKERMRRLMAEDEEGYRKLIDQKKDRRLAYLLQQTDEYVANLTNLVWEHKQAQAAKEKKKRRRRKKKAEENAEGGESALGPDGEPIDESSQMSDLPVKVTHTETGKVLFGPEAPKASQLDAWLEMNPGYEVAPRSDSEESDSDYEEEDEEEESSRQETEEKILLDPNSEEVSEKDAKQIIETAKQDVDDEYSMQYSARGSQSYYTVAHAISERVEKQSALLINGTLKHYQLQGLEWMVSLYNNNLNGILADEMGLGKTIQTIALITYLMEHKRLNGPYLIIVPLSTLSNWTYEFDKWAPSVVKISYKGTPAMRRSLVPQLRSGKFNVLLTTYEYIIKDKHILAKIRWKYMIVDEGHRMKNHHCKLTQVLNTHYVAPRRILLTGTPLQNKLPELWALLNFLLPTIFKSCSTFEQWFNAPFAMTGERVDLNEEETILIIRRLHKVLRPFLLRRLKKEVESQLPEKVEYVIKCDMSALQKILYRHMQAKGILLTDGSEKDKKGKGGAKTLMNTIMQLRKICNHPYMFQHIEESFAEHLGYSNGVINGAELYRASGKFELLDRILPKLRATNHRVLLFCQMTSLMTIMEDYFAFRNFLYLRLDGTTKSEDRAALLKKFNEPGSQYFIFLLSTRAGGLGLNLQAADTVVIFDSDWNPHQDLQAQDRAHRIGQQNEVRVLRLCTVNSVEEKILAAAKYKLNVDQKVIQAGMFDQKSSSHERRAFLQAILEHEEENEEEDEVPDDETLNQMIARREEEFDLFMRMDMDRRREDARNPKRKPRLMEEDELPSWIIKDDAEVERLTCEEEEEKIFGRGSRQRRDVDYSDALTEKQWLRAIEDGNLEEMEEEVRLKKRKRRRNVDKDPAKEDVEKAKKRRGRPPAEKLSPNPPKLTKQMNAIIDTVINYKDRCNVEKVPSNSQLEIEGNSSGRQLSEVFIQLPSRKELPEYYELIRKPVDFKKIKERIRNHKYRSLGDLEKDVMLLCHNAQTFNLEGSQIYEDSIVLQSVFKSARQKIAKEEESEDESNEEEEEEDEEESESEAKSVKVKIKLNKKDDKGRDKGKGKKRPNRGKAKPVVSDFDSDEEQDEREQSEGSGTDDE

DC50 (SMARCA2; [3]) | DC50 (SMARCA4; [2]) | Dmax (SMARCA4; [4]) | Dmax (SMARCA2; [3]) | Dmax (SMARCA4; [5]) | Compound | Dmax (SMARCA4; [1]) | SMARC A4 Hela HiBit DC50(nM) (SMARCA4; [2]) | Dmax (SMARCA2; HeLa) | DC50 (SMARCA4) | DC50 (SMARCA2)
10 to 100 nM | 100 to 1000 nM | 70 to 90% | 70 to 90% |  | Cc1ncsc1-c1ccc([C@H](Cn2cc(CN3CCC(c4ccc5c(c4)-n4c(nc(=O)c6c(Br)cccc64)C54CCCCC4)CC3)nn2)NC(=O)[C@@H]2C[C@@H](O)CN2C(=O)[C@@H](n2cc(C3CC3)nn2)C(C)(C)C)cc1 [Compound A114, (2S,4R)—N—((R)-2-(4-((4-(4′-bromo-5′-oxo-5′H-spiro[cyclohexane-1,7′-indolo[1,2-a]quinazolin]-10′-yl)piperidin-1-yl)methyl)-1H-1,2,3-triazol-1-yl)-1-(4-(4-methylthiazol-5-yl)phenyl)ethyl)-1-((S)-2-(4-cyclopropyl-1H-1,2,3-triazol-1-yl)-3,3-dimethylbutanoyl)-4-hydroxypyrrolidine-2-carboxamide] |  |  |  |  | 
< 10 nM | > 1000 nM | 50 to 69% | > 90% |  | COC(=O)C1CCN(C[C@H](NC(=O)[C@@H]2C[C@@H](O)CN2C(=O)[C@@H](n2cc([C@H]3CC[C@H](CN4CCC(c5ccc6c(c5)-n5c(nc(=O)c7c(Cl)cccc75)C65CCCCC5)CC4)CC3)nn2)C(C)(C)C)c2ccc(-c3scnc3C)cc2)CC1 [Compound A153, methyl 1-((R)-2-((2S,4R)-1-((S)-2-(4-((1r,4S)-4-((4-(4′-chloro-5′-oxo-5′H-spiro[cyclohexane-1,7′-indolo[1,2-a]quinazolin]-10′-yl)piperidin-1-yl)methyl)cyclohexyl)-1H-1,2,3-triazol-1-yl)-3,3-dimethylbutanoyl)-4-hydroxypyrrolidine-2-carboxamido)-2-(4-(4-methylthiazol-5-yl)phenyl)ethyl)piperidine-4-carboxylate] |  |  |  |  | 
< 10 nM | < 10 nM | 70 to 90% | > 90% |  | Cc1ncsc1-c1ccc([C@H](CC(=O)N2CCC3(CCC(CN4CCC(c5ccc6c(c5)-n5c(nc(=O)c7c(Br)cccc75)C65CCCCC5)CC4)CC3)CC2)NC(=O)[C@@H]2C[C@@H](O)CN2C(=O)[C@@H](n2cc(C3CC3)nn2)C(C)(C)C)cc1 [Compound A142, (2S,4R)—N—((S)-3-(9-((4-(4′-bromo-5′-oxo-5′H-spiro[cyclohexane-1,7′-indolo[1,2-a]quinazolin]-10′-yl)piperidin-1-yl)methyl)-3-azaspiro[5.5]undecan-3-yl)-1-(4-(4-methylthiazol-5-yl)phenyl)-3-oxopropyl)-1-((S)-2-(4-cyclopropyl-1H-1,2,3-triazol-1-yl)-3,3-dimethylbutanoyl)-4-hydroxypyrrolidine-2-carboxamide] |  |  |  |  | 
< 100 nM | < 100 nM |  | > 90% | 70 to 90% | Cc1ncsc1-c1ccc(CNC(=O)[C@@H]2C[C@@H](O)CN2C(=O)[C@@H](n2cc([C@H]3CC[C@H](CN4CCC(c5ccc6c(c5)-n5c(nc(=O)c7c(Br)cccc75)C65CCCCC5)CC4)CC3)nn2)C(C)(C)C)cc1 [Compound A67, (2S,4R)-1-((S)-2-(4-((1r,4S)-4-((4-(4′-bromo-5′-oxo-5′H-spiro[cyclohexane-1,7′-indolo[1,2-a]quinazolin]-10′-yl)piperidin-1-yl)methyl)cyclohexyl)-1H-1,2,3-triazol-1-yl)-3,3-dimethylbutanoyl)-4-hydroxy-N-(4-(4-methylthiazol-5-yl)benzyl)pyrrolidine-2-carboxamide] |  |  |  |  | 
< 100 nM | > 1000 nM |  | > 90% | 50 to 69% | Cc1ncsc1-c1ccc([C@H](CN2CC(C)(F)C2)NC(=O)[C@@H]2C[C@@H](O)CN2C(=O)[C@@H](n2cc([C@H]3CC[C@H](CN4CCC(c5ccc6c(c5)-n5c(nc(=O)c7c(Cl)cccc75)C65CCCCC5)CC4)CC3)nn2)C(C)(C)C)cc1 [Compound A74, (2S,4R)-1-((S)-2-(4-((1r,4S)-4-((4-(4′-chloro-5′-oxo-5′H-spiro[cyclohexane-1,7′-indolo[1,2-a]quinazolin]-10′-yl)piperidin-1-yl)methyl)cyclohexyl)-1H-1,2,3-triazol-1-yl)-3,3-dimethylbutanoyl)-N—((R)-2-(3-fluoro-3-methylazetidin-1-yl)-1-(4-(4-methylthiazol-5-yl)phenyl)ethyl)-4-hydroxypyrrolidine-2-carboxamide] |  |  |  |  | 

Continued, molecule first:

Compound | DC50 (SMARCA2; [3]) | DC50 (SMARCA4; [2]) | Dmax (SMARCA4; [4]) | Dmax (SMARCA2; [3]) | Dmax (SMARCA4; [5]) | Dmax (SMARCA4; [1]) | SMARC A4 Hela HiBit DC50(nM) (SMARCA4; [2]) | Dmax (SMARCA2; HeLa) | DC50 (SMARCA4) | DC50 (SMARCA2)
Cc1ncsc1-c1ccc([C@H](C)NC(=O)[C@@H]2C[C@@H](O)CN2C(=O)[C@@H](NC(=O)[C@H]2CC[C@H](CN3CCC(c4ccc5c(c4)C4(CCCCC4)c4nc(=O)c6c(Cl)cccc6n4-5)CC3)CC2)C(C)(C)C)cc1 [Compound A11, (2S,4R)-1-((S)-2-((1r,4S)-4-((4-(4′-chloro-5′-oxo-5′H-spiro[cyclohexane-1,7′-indolo[1,2-a]quinazolin]-9′-yl)piperidin-1-yl)methyl)cyclohexane-1-carboxamido)-3,3-dimethylbutanoyl)-4-hydroxy-N—((S)-1-(4-(4-methylthiazol-5-yl)phenyl)ethyl)pyrrolidine-2-carboxamide] | < 100 nM |  |  |  |  | < 50% | No fit | 70 to 90% |  | 
Cc1ncsc1-c1ccc([C@@H](C)NC(=O)[C@@H]2C[C@@H](O)CN2C(=O)C(c2cc(N3CCC(CN4CCC(c5ccc6c(c5)C5(CCCCC5)c5nc(=O)c7c(Br)cccc7n5-6)CC4)CC3)no2)C(C)C)cc1 (stereo partly drawn) [Compound A59, (2S,4R)-1-(2-(3-(4-((4-(4′-bromo-5′-oxo-5′H-spiro[cyclohexane-1,7′-indolo[1,2-a]quinazolin]-9′-yl)piperidin-1-yl)methyl)piperidin-1-yl)isoxazol-5-yl)-3-methylbutanoyl)-4-hydroxy-N—((R)-1-(4-(4-methylthiazol-5-yl)phenyl)ethyl)pyrrolidine-2-carboxamide] | < 100 nM | > 1000 nM |  | 70 to 90% | < 50% |  |  |  |  | 
Cc1ncsc1-c1ccc([C@H](C)NC(=O)[C@@H]2C[C@@H](O)CN2C(=O)[C@H](C2CCN(C(=O)[C@@H]3COCCO3)CC2)n2cc([C@H]3CC[C@H](CN4CCC(c5ccc6c(c5)-n5c(nc(=O)c7c(Cl)cccc75)C65CCCCC5)CC4)CC3)nn2)cc1 [Compound A113, (2S,4R)-1-((S)-2-(1-((S)-1,4-dioxane-2-carbonyl)piperidin-4-yl)-2-(4-((1r,4S)-4-((4-(4′-chloro-5′-oxo-5′H-spiro[cyclohexane-1,7′-indolo[1,2-a]quinazolin]-10′-yl)piperidin-1-yl)methyl)cyclohexyl)-1H-1,2,3-triazol-1-yl)acetyl)-4-hydroxy-N—((S)-1-(4-(4-methylthiazol-5-yl)phenyl)ethyl)pyrrolidine-2-carboxamide] | < 10 nM |  | 70 to 90% | > 90% |  |  | No fit |  |  | 
Cc1ncsc1-c1ccc([C@H](CCCCCN2CCC(c3ccc4c(c3)C3(CCCCC3)c3nc(=O)c5c(Br)cccc5n3-4)CC2)NC(=O)[C@H]2C[C@H](O)CN2C(=O)[C@@H](NC(=O)C2(CN3CCOCC3)CC2)C(C)(C)C)cc1 [Compound A38, (2R,4S)—N—((S)-6-(4-(4′-bromo-5′-oxo-5′H-spiro[cyclohexane-1,7′-indolo[1,2-a]quinazolin]-9′-yl)piperidin-1-yl)-1-(4-(4-methylthiazol-5-yl)phenyl)hexyl)-1-((S)-3,3-dimethyl-2-(1-(morpholinomethyl)cyclopropane-1-carboxamido)butanoyl)-4-hydroxypyrrolidine-2-carboxamide] | < 100 nM | 100 to 500 nM |  | > 90% | 70 to 90% |  |  |  |  | 
Cc1ncsc1-c1ccc([C@H](C)NC(=O)[C@@H]2C[C@@H](O)CN2C(=O)[C@@H](n2cc([C@H]3CC[C@H](CN4CCC(c5ccc6c(c5)-n5c(nc(=O)c7c(Br)cccc75)C65CCCCC5)CC4)CC3)nn2)C(C)(C)C)cc1 [Compound A62, (2S,4R)-1-((S)-2-(4-((1r,4S)-4-((4-(4′-bromo-5′-oxo-5′H-spiro[cyclohexane-1,7′-indolo[1,2-a]quinazolin]-10′-yl)piperidin-1-yl)methyl)cyclohexyl)-1H-1,2,3-triazol-1-yl)-3,3-dimethylbutanoyl)-4-hydroxy-N—((S)-1-(4-(4-methylthiazol-5-yl)phenyl)ethyl)pyrrolidine-2-carboxamide] |  |  |  |  |  | 70 to 90% |  | > 90% | < 100 nM | < 100 nM
